Assay results: patent US11419803B2, “Skin darkening composition” (Conopco, Inc., priority 2017, dated 2022)

Experiments:
[1] = test system: Neonatal foreskin primary human epidermal melanocytes; test: Cell viability, calcein method; type: cell-based
Procedure: (§1) All test compounds were purchased from SIGMA-ALDRICH as powders. They were tested at various concentrations in cell culture (see below). Forskolin (SIGMA Cat. # F6886) was used as reference comparators, as they have been reported to increase melanin content. Neonatal foreskin primary human epidermal melanocytes were procured from Cascade Biologicals (labelled passage P0). Melanocytes were maintained in Medium 254CF (Cascade Cat. # M-254CF-500) supplemented with human melanocyte growth supplement (Cascade; Cat. # S-002-5), hereafter referred to as MGM. Cells were maintained at 37° C. in a humidified incubator with 5% CO2 atmosphere.
(§2) 50,000 cells were seeded in 24 well plate in MGM; after 24 hours, cultures were treated with various concentrations of the test materials and left undisturbed for a further period of 72 hours. Comparative vehicle controls of 0.25% (v/v) DMSO were also set up in parallel, simultaneously. At the end of the incubation period, cell viability was determined using the calcein method.
Briefly, cell culture spent media was removed and cells washed once with 0.4 ml of 1× PBS-Ca—Mg solution. Fresh 1 μM calcein-AM was added (0.2 ml/well), including to control wells without cells. Plates were covered with aluminium foil and incubated for 30 minutes. at 37° C. in the regular CO2 incubator. Calcein fluorescence was then measured (λmax 490 nm and λmax 520 nm) in TECAN® M1000 Infinite series plate reader.
(§3) Calcein fluorescence values were ratio converted in 0 to 100 scale (% viability), with 100 representing the value of the 0.25% DMSO sample. % Melanin content was calculated as the ratio between OD405 nm value of any sample to that of DMSO reference sample.

[2] = test system: Neonatal foreskin primary human epidermal melanocytes; test: Melanin content assay; type: cell-based; settings: 72 hours, compared to vehicle control = 100
Procedure: as §1, §2
After calcein fluorescence readings were obtained, cells were drained and added fresh 125 μl of 1N NaOH (in 10% DMSO) per well. Cells were lysed by resuspension and incubation (60° C./1 hour.). Then this lysate was transferred to a fresh […] and measured OD405 nm in a TECAN M1000 plate reader (estimate of relative melanin content).
as §3
Normalized melanin content value was then calculated as 100*(% Melanin Content)/(% Cellular viability).
The percentage Increase in melanin content was estimated as [(Normalized melanin content)−100]

CCCCCCCc1ccc(C(=O)O)cc1 [Example 1, 4-heptyl benzoic acid]
% Viability ([1]; human, 72 h, 6.25 µM): 102% | % Viability ([1]; human, 72 h, 12.5 µM): 102% | % Viability ([1]; human, 72 h, 25 µM): 93% | % Melanin content ([2]; 6.25 micromolar): 124% | % Melanin content ([2]; 12.5 micromolar): 129% | % Melanin content ([2]; 25 micromolar): 113%

CCCCCCCOc1ccc(C(=O)O)cc1 [Example 2, 4-heptyloxybenzoic acid]
% Viability ([1]; 10 micromolar, 72 hours, relative to 0.25% DMSO control = 100): 94% | % Viability ([1]; 15 micromolar, 72 hours, relative to 0.25% DMSO control = 100): 96% | % Viability ([1]; 20 micromolar, 72 hours, relative to 0.25% DMSO control = 100): 95% | % Viability ([1]; 25 micromolar, 72 hours, relative to 0.25% DMSO control = 100): 96% | % Melanin content ([2]; 10 micromolar): 117% | % Melanin content ([2]; 15 micromolar): 126% | % Melanin content ([2]; 20 micromolar): 129% | % Melanin content ([2]; 25 micromolar): 137%

CCCCCCCCOc1ccc(C(=O)O)cc1 [Example 3, 4-octyloxybenzoic acid]
% Viability ([1]; human, 72 h, 10 µM): 101% | % Viability ([1]; human, 72 h, 15 µM): 103% | % Viability ([1]; human, 72 h, 20 µM): 100% | % Viability ([1]; human, 72 h, 25 µM): 86% | % Melanin content ([2]; 10 micromolar): 127% | % Melanin content ([2]; 15 micromolar): 144% | % Melanin content ([2]; 20 micromolar): 127% | % Melanin content ([2]; 25 micromolar): 86%

CCCCCCCCCOc1ccc(C(=O)O)cc1 [Example 4, 4-nonyloxybenzoic acid]
% Viability ([1]; human, 72 h, 5 µM): 102% | % Viability ([1]; human, 72 h, 10 µM): 109% | % Viability ([1]; human, 72 h, 15 µM): 109% | % Viability ([1]; human, 72 h, 20 µM): 103% | % Viability ([1]; human, 72 h, 25 µM): 103% | % Melanin content ([2]; 5 micromolar): 126% | % Melanin content ([2]; 10 micromolar): 129% | % Melanin content ([2]; 15 micromolar): 136% | % Melanin content ([2]; 20 micromolar): 130% | % Melanin content ([2]; 25 micromolar): 137%

CCCCCCCCCCCOc1ccc(C(=O)O)cc1 [Example 5, 4-undecyloxybenzoic acid]
% Viability ([1]; human, 72 h, 10 µM): 97% | % Viability ([1]; human, 72 h, 15 µM): 100% | % Viability ([1]; human, 72 h, 20 µM): 90% | % Viability ([1]; human, 72 h, 25 µM): 79% | % Melanin content ([2]; 10 micromolar): 136% | % Melanin content ([2]; 15 micromolar): 146% | % Melanin content ([2]; 20 micromolar): 134% | % Melanin content ([2]; 25 micromolar): 120%
